The values below are quoted from earlier work in PubChem BioAssay AID1259410 (Chemical Carcinogenesis Research Information System (CCRIS), 2018).

The series deals with rodent tumor promotion studies, tumor incidence. The series can be described thus: CCRIS tumor promotion studies.

Each structure is given as a SMILES string.

With `OCc1c[nH]c2ccccc12`, the outcome is, setting by setting: (Carcinogen: DIETHYLNITROSAMINE, 55-18-5, N-METHYL-N-NITROSOUREA, 684-93-5, DIHYDROXY-DI-N-PROPYLNITROSAMINE, 53069-64-6, Carcinogen: DIETHYLNITROSAMINE, 55-18-5, N-METHYL-N-NITROSOUREA, 684-93-5, DIHYDROXY-DI-N-PROPYLNITROSAMINE, 53069-64-6, Doses [Carcinogen]: 100 MG/KG BW DEN ONCE THEN 20 MG/KG BW MNU ONCE ON DAYS 5, 8, 11, AND 14 FOLLOWED BY 0.1% DHEN IN DRINKING WATER FOR 2 W, Doses [Promoter]: 0, 0.25% IN DIET FOR 20 WK BEGINNING POST CARCINOGEN TREATMENT (STUDY DURATION: 52 WK), Route [Carcinogen]: INTRAPERITONEAL, INTRAPERITONEAL, ORAL, Route [Carcinogen]: INTRAPERITONEAL, INTRAPERITONEAL, ORAL, Route [Promoter]: ORAL, Species: RAT, Strain/Sex: SPRAGUE-DAWLEY/MALE) “thyroid gland: follicular cell adenoma or carcinoma”; (Carcinogen: DIETHYLNITROSAMINE, 55-18-5, N-METHYL-N-NITROSOUREA, 684-93-5, DIHYDROXY-DI-N-PROPYLNITROSAMINE, 53609-64-6, Carcinogen: DIETHYLNITROSAMINE, 55-18-5, N-METHYL-N-NITROSOUREA, 684-93-5, DIHYDROXY-DI-N-PROPYLNITROSAMINE, 53609-64-6, Doses [Carcinogen]: 100 MG/KG BW DEN ONCE, 20 MG/KG BW MNU 2/WK FOR 2 WK, THEN 0.1% DHPN IN DRINKING WATER FOR 2 WK, Doses [Promoter]: O, 0.25% IN DIET FOR 20 WK BEGINNING POST CARCINOGEN TREATMENT (STUDY DURATION: 52 WK), Route [Carcinogen]: INTRAPERITONEAL, INTRAPERITONEAL, ORAL, Route [Carcinogen]: INTRAPERITONEAL, INTRAPERITONEAL, ORAL, Route [Promoter]: ORAL, Species: RAT, Strain/Sex: SPRAGUE-DAWLEY/MALE) “thyroid gland: adenoma and adenocarcinoma”; (Doses [Carcinogen]: 0.5 PPM FOR 30 MIN, Doses [Promoter]: 0, 1000 PPM IN DIET BEGINNING 14 WK POST CARCINOGEN DOSE (STUDY DURATION: 12 MO), Route [Carcinogen]: IMMERSION, Route [Promoter]: ORAL, Species: FISH, Strain/Sex: RAINBOW TROUT) “liver: tumor”; (Doses [Carcinogen]: 12.5 PPB IN WATER FOR 30 MIN, Doses [Promoter]: 0, 2000 PPM IN DIET BEGINNING 4 WK POST CARCINOGEN DOSE AND CONTINUING FOR DURATION OF STUDY (STUDY DURATION: 36 WK), Route [Carcinogen]: IMMERSION, Route [Promoter]: ORAL, Species: FISH, Strain/Sex: RAINBOW TROUT) “liver: tumor”; (Doses [Carcinogen]: 12.5 PPB IN WATER FOR 30 MIN, Doses [Promoter]: 0, 2000 PPM IN DIET BEGINNING 12 WK POST CARCINOGEN DOSE AND CONTINUING FOR 12 WK FOLLOWED BY CONTROL DIET FOR 12 WK (ST, Route [Carcinogen]: IMMERSION, Route [Promoter]: ORAL, Species: FISH, Strain/Sex: RAINBOW TROUT) “liver: tumor”; (Doses [Carcinogen]: 12.5 PPB IN WATER FOR 30 MIN, Doses [Promoter]: 0, 2000 PPM IN DIET BEGINNING 12 WK POST CARCINOGEN DOSE AND CONTINUING FOR DURATION OF STUDY (STUDY DURATION: 36 WK), Route [Carcinogen]: IMMERSION, Route [Promoter]: ORAL, Species: FISH, Strain/Sex: RAINBOW TROUT) “liver: tumor”. For the same compound, the outcome is on record as “liver: tumor” (Doses [Carcinogen]: 12.5 PPB IN WATER FOR 30 MIN, Doses [Promoter]: 0, 2000 PPM IN DIET FOR 24 WK BEGINNING POST CARCINOGEN DOSE (STUDY DURATION: 36 WK), Route [Carcinogen]: IMMERSION, Route [Promoter]: ORAL, Species: FISH, Strain/Sex: RAINBOW TROUT); “liver: tumor” (Doses [Carcinogen]: 12.5 PPB IN WATER FOR 30 MIN, Doses [Promoter]: 0, 2000 PPM IN DIET FOR 36 WK BEGINNING POST CARCINOGEN DOSE (STUDY DURATION: 36 WK), Route [Carcinogen]: IMMERSION, Route [Promoter]: ORAL, Species: FISH, Strain/Sex: RAINBOW TROUT); “liver: tumor” (Doses [Carcinogen]: 50-250 PPM IN WATER FOR 30 MIN, Doses [Promoter]: 0, 500, 750, 1000, 1250 PPM IN DIET BEGINNING 3 MO POST CARCINOGEN TREATMENT (STUDY DURATION: 13 MO), Doses [Promoter]: 0, 500, 750, 1000, 1250 PPM IN DIET BEGINNING 3 MO POST CARCINOGEN TREATMENT (STUDY DURATION: 13 MO), Route [Carcinogen]: IMMERSION, Route [Promoter]: ORAL, Species: FISH, Strain/Sex: RAINBOW TROUT/MALE, FEMALE); “liver: tumor” (Doses [Carcinogen]: 50 PPB IN WATER FOR 30 MIN, Doses [Promoter]: 0, 2000 PPM IN DIET BEGINNING POST CARCINOGEN DOSE AND ADMINISTERED 2 D/WK FOR DURATION OF STUDY (STUDY DURATION: 36 WK), Route [Carcinogen]: IMMERSION, Route [Promoter]: ORAL, Species: FISH, Strain/Sex: RAINBOW TROUT); “liver: tumor” (Doses [Carcinogen]: 50 PPB IN WATER FOR 30 MIN, Doses [Promoter]: 0, 2000 PPM IN DIET BEGINNING POST CARCINOGEN DOSE AND ADMINISTERED FOR 1 WK ALTERNATING WEEKLY WITH CONTROL DIET (STUDY, Route [Carcinogen]: IMMERSION, Route [Promoter]: ORAL, Species: FISH, Strain/Sex: RAINBOW TROUT).
For `CCCCCCCCCCCCCCCCCCCCCCCCCCCC`, where the note is “Carcinogen: 7,12-DIMETHYLBENZ(A)ANTHRACENE, Doses [Carcinogen]: TOP, Route [Carcinogen]: DERMAL, Route [Promoter]: DERMAL, Species: MOUSE, Strain/Sex: MALE”, the outcome is “integumentary system (skin)”.
In the case of `Oc1cc(O)c2c(c1)O[C@H](c1ccc(O)c(O)c1)[C@@H](O)C2`, the outcome (Carcinogen: N-METHYL-N'-NITRO-N-NITROSOGUANIDINE, 70-25-7, Doses [Carcinogen]: 150 MG/KG BW ONCE, Doses [Promoter]: 0, 0.8% IN DIET FOR 51 D BEGINNING 1 WK POST CARCINOGEN DOSE (STUDY DURATION: 52 WK), Route [Carcinogen]: GAVAGE, Route [Promoter]: ORAL, Species: RAT, Strain/Sex: F344/MALE) is reported as “forestomach: carcinoma; glandular stomach: adenocarcinoma”.
For `CN(C)CCOc1ccc(/C(=C(/CCCl)c2ccccc2)c2ccccc2)cc1`, the outcome (Carcinogen: DIETHYLNITROSAMINE, 55-18-5, Doses [Carcinogen]: 2.5 UG/G BW IN SALINE ONCE, Doses [Promoter]: 0, 0.5-1 MG IN PELLET IMPLANTED 1/MONTH FOR 30 WK BEGINNING 30 D POST CARCINOGEN TREATMENT (STUDY DURATION: 240 D), Route [Carcinogen]: INTRAPERITIONEAL, Route [Promoter]: SUBCUTANEOUS, Species: MOUSE, Strain/Sex: B6C3F1/FEMALE) is recorded as “liver: tumor”.
On to `Oc1c(Cl)c(Cl)c(Cl)c(Cl)c1Cl`, for which the outcome by setting is: (Carcinogen: DIETHYLNITROSAMINE [55-18-5], Doses [Carcinogen]: 20 PPM IN DRINKING WATER FOR 13 WEEKS (STUDY DURATION: 42 WK), Doses [Promoter]: 300 PPM IN DIET FOR 25 WK BEGINNING 4 WK POST LAST CARCINOGEN DOSE (STUDY DURATION: 42 WK), Route [Carcinogen]: ORAL, Route [Promoter]: ORAL, Species: MOUSE, Strain/Sex: B6C3F1/MALE) “liver: adenoma or carcinoma”; (Carcinogen: DIETHYLNITROSAMINE [55-18-5], Doses [Carcinogen]: 20 PPM IN DRINKING WATER FOR 13 WEEKS (STUDY DURATION: 42 WK), Doses [Promoter]: 600 PPM IN DIET FOR 25 WK BEGINNING 4 WK POST LAST CARCINOGEN DOSE (STUDY DURATION: 42 WK), Route [Carcinogen]: ORAL, Route [Promoter]: ORAL, Species: MOUSE, Strain/Sex: B6C3F1/MALE) “liver: adenoma or carcinoma”.
Consider `Nc1ccc(Cc2ccc(N)cc2)cc1`, for which the outcome was “thyroid: tumor” (Carcinogen: 2,2'-DIHYDROXY-N-NITROSODIPROPYLAMINE, 53609-64-6, Doses [Carcinogen]: 280 MG/100 G IN 0.5 ML SALINE ONCE, Doses [Promoter]: 0, 1000 PPM IN DIET FOR 19 WK (STUDY DURATION: 19 WK), Route [Carcinogen]: INTRAPERITONEAL, Route [Promoter]: ORAL, Species: RAT, Strain/Sex: WISTAR/MALE) and “thyroid: adenoma, adenocarcinoma” (Carcinogen: N-BIS(2-HYDROXYPROPYL)NITROSAMINE, 53609-64-6, N-ETHYL-N-HYDROXYETHYLNITROSAMINE, 13147-25-6, 3,2'-DIMETHYL-4-AMINOB, Carcinogen: N-BIS(2-HYDROXYPROPYL)NITROSAMINE, 53609-64-6, N-ETHYL-N-HYDROXYETHYLNITROSAMINE, 13147-25-6, 3,2'-DIMETHYL-4-AMINOB, Doses [Carcinogen]: 1000 MG/KG IP IN SALINE ON DAY 1 AND 4, 1500 MG/KG IG IN DISTILLED WATER ON DAY 8 AND 11, 75 MG/KG SC IN CORN OIL ON D, Doses [Carcinogen]: 1000 MG/KG IP IN SALINE ON DAY 1 AND 4, 1500 MG/KG IG IN DISTILLED WATER ON DAY 8 AND 11, 75 MG/KG SC IN CORN OIL ON D, Doses [Promoter]: 0, 0.1% IN DIET BEGINNING 1 WK POST LAST CARCINOGEN DOSE AND CONTINUING FOR 12 WK (STUDY DURATION: 16 WK), Route [Carcinogen]: INTRAPERITONEAL, GAVAGE, SUBCUTANEOUS, Route [Carcinogen]: INTRAPERITONEAL, GAVAGE, SUBCUTANEOUS, Route [Promoter]: ORAL, Species: RAT, Strain/Sex: F344/MALE).
Turning to `[Cl][Zn][Cl]`, the outcome (Carcinogen: URETHANE, 51-79-6, Doses [Carcinogen]: 1.5 MG/G ONCE, Doses [Promoter]: 0, 50, 200, 500 UG/ML IN DEIONIZED DRINKING WATER BEGINNING 3 WK PRIOR TO CARCINOGEN DOSE AND CONTINUING FOR 12 WK POST, Doses [Promoter]: 0, 50, 200, 500 UG/ML IN DEIONIZED DRINKING WATER BEGINNING 3 WK PRIOR TO CARCINOGEN DOSE AND CONTINUING FOR 12 WK POST, Route [Carcinogen]: INTRAPERITONEAL, Route [Promoter]: ORAL, Species: MOUSE, Strain/Sex: SWISS/FEMALE) is “lung: adenoma”.
